The molecules below were run against T1, Recombinant human Met (c-Met) (Homo sapiens, UniProt P08581) (assay: Inhibition of c-Met kinase activity using Transcreener FP assay). Conditions: IC50, inhibition of c-Met kinase activity, Poly E4Y substrate, 28° C. 45 min.
T1 construct: purchased Invitrogen PV3143
Type: biochemical

T1 sequence (P08581 956-1390 limits assumed): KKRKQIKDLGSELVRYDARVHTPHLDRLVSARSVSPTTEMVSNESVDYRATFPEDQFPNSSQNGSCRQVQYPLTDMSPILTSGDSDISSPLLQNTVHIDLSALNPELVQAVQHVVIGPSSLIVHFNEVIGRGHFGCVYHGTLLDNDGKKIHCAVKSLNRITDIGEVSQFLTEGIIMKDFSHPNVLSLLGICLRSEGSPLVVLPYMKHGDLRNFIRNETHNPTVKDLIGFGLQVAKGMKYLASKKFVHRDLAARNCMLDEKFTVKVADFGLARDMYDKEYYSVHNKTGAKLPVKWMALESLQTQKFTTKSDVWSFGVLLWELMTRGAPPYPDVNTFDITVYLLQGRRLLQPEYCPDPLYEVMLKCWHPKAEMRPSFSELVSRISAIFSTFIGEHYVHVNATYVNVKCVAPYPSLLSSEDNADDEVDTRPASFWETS

Row | IC50 [nM] | Compound
1 | 1 to 100 | C[C@@H](c1ccc2nccn2c1)n1nnc2ncc(-c3cnn(C)c3)nc21 [Compound 270]
2 | 1 to 100 | C[C@H](c1ccc2nccn2c1)n1nnc2ncc(-c3cnn(C)c3)nc21 [Compound 271]

Same assay, conditions: Poly E4Y substrate, 28° C. 45 min, read-out: IC50, inhibition of c-Met kinase activity

Row | Compound | IC50 [nM]
3 | Cn1cc(-c2cnc3nnn(Cc4ccc5ncc(CO)n5c4)c3n2)cn1 [Compound 272] | 1 to 100
4 | OCCn1cc(-c2ccc3nnn(Cc4ccc5nccn5n4)c3n2)cn1 [Compound 273] | 100 to 1000
5 | c1cc(-c2cnc3nnn(Cc4ccc5nccn5c4)c3n2)ccn1 [Compound 275] | 1 to 100
6 | COc1ccc(-c2cnc3nnn(Cc4ccc5nccn5c4)c3n2)cn1 [Compound 276] | 1 to 100
7 | CC(c1ccc2nccn2c1)n1nnc2ncc(-c3cnn(CC(F)(F)F)c3)nc21 (centres unmarked) [Compound 277] | 1 to 100
8 | Cn1cc(-c2cnc3nnn(Cc4ccc5ncc(Br)n5c4)c3n2)cn1 [Compound 278, 1-((3-Bromoimidazo[1,2-a]pyridin-6-yl)methyl)-6-(1-methyl-1H-pyrazol-4-yl)-1H-[1,2,3]triazolo[4,5-b]pyrazine] | 1 to 100
9 | OCCn1cc(-c2cnc3nnn(Cc4ccc5nccn5n4)c3n2)cn1 [Compound 281] | 1 to 100
10 | N#Cc1ccc(-c2cnc3nnn(Cc4cc5[nH]ncc5s4)c3n2)cn1 [Compound 282] | 1 to 100
11 | c1nn(C2CNC2)cc1-c1cnc2nnn(Cc3cc4[nH]ncc4s3)c2n1 [Compound 283] | 1 to 100
12 | Brc1cnc2nnn(Cc3ccc4ncnn4c3)c2n1 [Compound 284] | 100 to 1000
13 | c1nc2ccc(Cn3nnc4ncc(-c5cnn(C6CNC6)c5)nc43)cn2n1 [Compound 286] | 100 to 1000
14 | FC(F)(F)Cn1cc(-c2cnc3nnn(Cc4ccc5nccn5n4)c3n2)cn1 [Compound 287] | 1 to 100
15 | OCCn1cc(-c2cnc3nnn(Cc4ccn5nccc5n4)c3n2)cn1 [Compound 288] | 100 to 1000
16 | Cn1cc(-c2cnc3nnn(Cc4ccc5ncsc5n4)c3n2)cn1 [Compound 289] | 100 to 1000
17 | c1cn2cc(Cn3nnc4ncc(-c5cnn(C6CNC6)c5)nc43)ccc2n1 [Compound 290] | 1 to 100
18 | FC(F)(F)Cn1cc(-c2ccc3nnn(Cc4ccc5ncccc5n4)c3n2)cn1 [Compound 292] | 100 to 1000
19 | FC(F)(F)Cn1cc(-c2cnc3nnn(Cc4ccn5nccc5n4)c3n2)cn1 [Compound 293] | 100 to 1000
20 | Brc1cnc2nnn(Cc3cc4[nH]ncc4s3)c2n1 [Compound 295] | 1 to 100
21 | c1nn(C2COC2)cc1-c1cnc2nnn(Cc3cc4[nH]ncc4s3)c2n1 [Compound 296] | 100 to 1000
22 | Cc1cnc2ccc(Cn3nnc4ncc(-c5cnn(C)c5)nc43)cn12 [Compound 298] | 1 to 100
23 | CC(c1cc2[nH]ncc2s1)n1nnc2ncc(-c3cnn(C)c3)nc21 (centres unmarked) [Compound 299] | 100 to 1000

Results, then the molecule that gave them:

Row | IC50 [nM] | Compound
24 | 1 to 100 | Cn1cc(-c2cnc3nnn(Cc4ccc5ncc(Cl)n5c4)c3n2)cn1 [Compound 300]
25 | 1 to 100 | N#CCn1cc(-c2cnc3nnn(Cc4ccn5nccc5c4)c3n2)cn1 [Compound 301]
26 | 1 to 100 | N#Cc1ccc(-c2cnc3nnn(Cc4ccn5nccc5c4)c3n2)cn1 [Compound 302]
27 | 1 to 100 | Fc1ccc(-c2cnc3nnn(Cc4ccn5nccc5c4)c3n2)cc1 [Compound 303]
28 | 1 to 100 | COC(=O)c1cnn2ccc(Cn3nnc4ncc(-c5cnn(CCO)c5)nc43)cc12 [Compound 304]
29 | 1 to 100 | Cc1cnc2ccc(Cn3nnc4ncc(-c5cnn(CCO)c5)nc43)cn12 [Compound 305]
30 | 1 to 100 | OCCn1cc(-c2cnc3nnn(Cc4ccc5ncc(CO)n5c4)c3n2)cn1 [Compound 306]
31 | 1 to 100 | Cn1cc(-c2cnc3nnn(Cc4ccc5ncc(C=O)n5c4)c3n2)cn1 [Compound 307, 6-((6-(1-Methyl-1H-pyrazol-4-yl)-1H-[1,2,3]triazolo[4,5-b]pyrazin-1-yl)methyl)-imidazo[1,2-a]pyridine-3-carbaldehyde]
32 | 1 to 100 | COCc1cnc2ccc(Cn3nnc4ncc(-c5cnn(C)c5)nc43)cn12 [Compound 308]
33 | 1 to 100 | COCc1cnc2ccc(Cn3nnc4ncc(-c5cnn(CCO)c5)nc43)cn12 [Compound 309]
34 | 1 to 100 | O=Cc1cnn2ccc(Cn3nnc4ncc(-c5cnn(CCO)c5)nc43)cc12 [Compound 312, 5-((6-(1-(2-Hydroxyethyl)-1H-pyrazol-4-yl)-1H-[1,2,3]triazolo[4,5-b]pyrazin-1-yl)methyl)pyrazolo[1,5-a]pyridine-3-carbaldehyde]
35 | 1 to 100 | OCCn1cc(-c2cnc3nnn(Cc4ccn5ncc(CO)c5c4)c3n2)cn1 [Compound 313]
36 | 100 to 1000 | OCCn1cc(-c2cnc3nnn(Cc4ccn5ncnc5c4)c3n2)cn1 [Compound 317]
37 | 1 to 100 | CN(C)Cc1cnc2ccc(Cn3nnc4ncc(-c5cnn(C)c5)nc43)cn12 [Compound 319]
38 | 100 to 1000 | Cn1cc(-c2cnc3nnn(Cc4ccc5ncc(CN6CCOCC6)n5c4)c3n2)cn1 [Compound 320]
39 | 1 to 100 | CCOCc1cnc2ccc(Cn3nnc4ncc(-c5cnn(C)c5)nc43)cn12 [Compound 321]
40 | 1 to 100 | COCc1cnn2ccc(Cn3nnc4ncc(-c5cnn(CCO)c5)nc43)cc12 [Compound 322, 2-(4-(1-((3-(Methoxymethyl)pyrazolo[1,5-a]pyridin-5-yl)methyl)-1H-[1,2,3]triazolo[4,5-b]pyrazin-6-yl)-1H-pyrazol-1-yl)ethanol]
41 | 1 to 100 | CC(C)OCc1cnc2ccc(Cn3nnc4ncc(-c5cnn(C)c5)nc43)cn12 [Compound 323]
42 | 1 to 100 | COCc1cnc2ccc([C@H](C)n3nnc4ncc(-c5cnn(C)c5)nc43)cn12 [Compound 324]
43 | 1 to 100 | COCc1cnc2ccc([C@@H](C)n3nnc4ncc(-c5cnn(C)c5)nc43)cn12 [Compound 325]
44 | 1 to 100 | CCC(c1ccc2nccn2c1)n1nnc2ncc(-c3cnn(C)c3)nc21 (centres unmarked) [Compound 326]
45 | 1 to 100 | CNCc1cnc2ccc(Cn3nnc4ncc(-c5cnn(C)c5)nc43)cn12 [Compound 327, N-methyl-1-(6-((6-(1-methyl-1H-pyrazol-4-yl)-1H-[1,2,3]triazolo[4,5-b]pyrazin-1-yl)methyl)imidazo[1,2-a]pyridin-3-yl)methanamine]
46 | 1 to 100 | CC(c1ccc2nccn2c1)n1nnc2ncc(-c3cn[nH]c3)nc21 (centres unmarked) [Compound 328]
47 | 1 to 100 | COc1ncc(-c2cnc3nnn(C(C)c4ccc5nccn5c4)c3n2)cc1NS(C)(=O)=O (centres unmarked) [Compound 329]

— US11896592B2, “Certain triazolopyridines and triazolopyrazines, compositions thereof and methods of use therefor” (Hutchison Medipharma Limited, priority 2009, dated 2024)
